Assay results from article PMC3118614 (Biomedical chromatography : BMC, 2010).
Where two headings read alike, the source gives them in different places.

Legend:
[1] = assay type: in vivo, olive baboons (Papio Anubis)
[2] = ref Rowland et al., 2007; cited from earlier work

Cmax (maximum concentration) ([1]; baboon serum, single oral dose of NVP 5 mg/kg, solution formulation, n = 2, mean) [ng/mL] | Cmax (maximum concentration) ([1]; in vivo, po, 5 mg/kg) [ng/mL] | Cmax (maximum concentration) ([1]; in vivo, po, 10 mg/kg) [ng/mL] | Cmax (maximum concentration) ([1]; in vivo, po, 400 mg) [ng/mL] | Cmax (maximum concentration) ([1]; in vivo, po, 800 mg) [ng/mL] | ratio of the plasma level of 12-OHNVP and 4-CANVP ([1]; in vivo, 5 mg/kg) | ratio of the plasma level of 12-OHNVP and 4-CANVP ([1]; in vivo, 10 mg/kg) | SMILES | metabolites detected in human plasma (metabolic profile, in words) [2]
144.90 ± 22.31 | – | – | – | – | – | – | O=C1Nc2c(C(=O)O)ccnc2N(C2CC2)c2ncccc21 [4-CANVP, nevirapine 4-carboxylic acid] | –
– | 11.50 ± 3.63 | 19.69 ± 9.94 | 16.53 ± 1.10 | 72.85 ± 60.37 | – | – | Cc1c(O)cnc2c1NC(=O)c1cccnc1N2C1CC1 [3-OHNVP] | major metabolites
– | – | – | – | – | – | – | Cc1ccnc2c1NC(=O)c1cc(O)cnc1N2C1CC1 [8-OHNVP] | low plasma level
– | 31.38 ± 10.59 | 275.25 ± 126.07 | 157.16 ± 7.06 | 385.38 ± 346.21 | 0.21 | 1.3 | O=C1Nc2c(CO)ccnc2N(C2CC2)c2ncccc21 [12-OHNVP] | major metabolites
– | – | – | – | – | – | – | Cc1cc(=O)[nH]c2c1NC(=O)c1cccnc1N2C1CC1 [2-OHNVP, 2-hydroxynevirapine] | major metabolites
